In test [1] the test system is E. coli containing the lasQS device. Briefly: Growth rate of E. coli containing the lasQS inducible device exposed to AHL (microplate OD600). As to conditions: glucose 20 mM. It is filed as cell-based, Escherichia coli. How it is done:
For characterizations of inducible system (lasQS device) in the vector pBbE8K, cells were first grown to stationary phase overnight in LB medium before being diluted 100× into fresh LB medium. The diluted cells were grown to exponential phase (OD600=1), washed and resuspended in supplemented minimal media with varying glucose concentration (20-0.1 mM) as mentioned earlier. Before being subjected to the microplate fluorescence assay, N-(3-Oxododecanoyl)-L-homoserine lactone (3-Oxo-C12-HSL, Sigma-Aldrich) was added to the pre-culture (Top10—pTetR-LasR-pLuxR-RFP) at varying molar concentrations of 10^−7-10^−9 M. The cell cultures were measured for their OD600 and RFP fluorescence for 6 h.
For each promoter, the three OD600 and RFP data were averaged and background absorbance (wells containing only media) and fluorescence (Top10—E8K)) were subtracted from the raw measurements to obtain OD600 and RFP time series. Measurements were obtained in mid-exponential growth and growth rates were calculated as a time derivative of the OD curves, μ=d ln(OD)/dt. The activity of the promoters (RFP synthesis rate per cell) were calculated by, d(RFP)/dt/OD600. Relative promoter units of every promoter studied were calculated by,
The lasQS device used in this study comprised three key components (FIG. 5(A)): the AHL synthetase LasI, the transcription factor LasR, and the lasI promoter. LasI produces the signaling molecule 3-O—C12-HSL (or AHL), and the LasR-AHL complex activates the lasI promoter. First, to examine the characteristics of the lasQS device, we constitutively expressed LasR using a sigma-70 promoter J23105, derived from the BioBrick parts registry (www.partsregistry.org/Part:pSB1K3). The activity of the device was indicated by red fluorescence protein (RFP), which was placed under the control of the lasI promoter. E. coli containing the lasQS device was exogenously exposed to AHL concentrations ranging from 10^−9 M to 10^−7 M and varying glucose concentrations.

A further test relates to wild-type E. coli Top10. The test can be described thus: Growth rate of wild-type E. coli Top10 with transcription and translation inhibitors (microplate OD600). It is filed as cell-based, Escherichia coli. How it is done: Seed cultures were grown in LB medium supplemented with 30 μg/ml kanamycin from freshly transformed plates and after 10 to 12 h of overnight growth, pre-cultures were inoculated in fresh LB medium at a dilution of 100× for 2 to 3 h exponential growth (OD600=0.7−1). For characterization of the promoters in the vector pBbE8K, cell cultures were grown in 5 mL of pre-warmed LB medium at 37° C. in 50 mL test tubes, shaken at 225 rpm. The culture tubes were kept in ice for about 5 min to stop further growth and were pelleted by centrifugation for 2 min at 3300 g in 4° C., washed and diluted to OD600=0.1 by resuspension in pre-warmed supplemented minimal media with different glucose concentrations ranging from 20 mM to 0.1 mM. Cultures were then […] into transparent, flat-bottom 96-well plate in triplicate aliquots of […]. The plate was incubated in 37° C. with shaking for 8 min and growth rates were monitored by measuring absorbance at 600 nm and fluorescence were monitored by measuring RFP at excitation 535 nm and emission 600 nm using Synergy HT microplate reader (Biotek) over time. Time series OD600 and RFP data were collected for every 10 min for a total run time of 6 h.
[…] The cells were subjected to a microplate assay to measure their OD600 for 6 h. Three biological replicates were used for all of the experiments conducted.
For each promoter, the three OD600 and RFP data were averaged and background absorbance (wells containing only media) and fluorescence (Top10—E8K)) were subtracted from the raw measurements to obtain OD600 and RFP time series. Measurements were obtained in mid-exponential growth and growth rates were calculated as a time derivative of the OD curves, μ=d ln(OD)/dt. The activity of the promoters (RFP synthesis rate per cell) were calculated by, d(RFP)/dt/OD600. Relative promoter units of every promoter studied were calculated by, […]

The next test deals with E. coli RNA polymerase (Escherichia coli, UniProt P0A8V2). As to conditions: used in simulations, reference (44); read-out: inhibitory potency KI; cited from earlier work.
Sequence of E. coli RNA polymerase (P0A8V2 whole entry): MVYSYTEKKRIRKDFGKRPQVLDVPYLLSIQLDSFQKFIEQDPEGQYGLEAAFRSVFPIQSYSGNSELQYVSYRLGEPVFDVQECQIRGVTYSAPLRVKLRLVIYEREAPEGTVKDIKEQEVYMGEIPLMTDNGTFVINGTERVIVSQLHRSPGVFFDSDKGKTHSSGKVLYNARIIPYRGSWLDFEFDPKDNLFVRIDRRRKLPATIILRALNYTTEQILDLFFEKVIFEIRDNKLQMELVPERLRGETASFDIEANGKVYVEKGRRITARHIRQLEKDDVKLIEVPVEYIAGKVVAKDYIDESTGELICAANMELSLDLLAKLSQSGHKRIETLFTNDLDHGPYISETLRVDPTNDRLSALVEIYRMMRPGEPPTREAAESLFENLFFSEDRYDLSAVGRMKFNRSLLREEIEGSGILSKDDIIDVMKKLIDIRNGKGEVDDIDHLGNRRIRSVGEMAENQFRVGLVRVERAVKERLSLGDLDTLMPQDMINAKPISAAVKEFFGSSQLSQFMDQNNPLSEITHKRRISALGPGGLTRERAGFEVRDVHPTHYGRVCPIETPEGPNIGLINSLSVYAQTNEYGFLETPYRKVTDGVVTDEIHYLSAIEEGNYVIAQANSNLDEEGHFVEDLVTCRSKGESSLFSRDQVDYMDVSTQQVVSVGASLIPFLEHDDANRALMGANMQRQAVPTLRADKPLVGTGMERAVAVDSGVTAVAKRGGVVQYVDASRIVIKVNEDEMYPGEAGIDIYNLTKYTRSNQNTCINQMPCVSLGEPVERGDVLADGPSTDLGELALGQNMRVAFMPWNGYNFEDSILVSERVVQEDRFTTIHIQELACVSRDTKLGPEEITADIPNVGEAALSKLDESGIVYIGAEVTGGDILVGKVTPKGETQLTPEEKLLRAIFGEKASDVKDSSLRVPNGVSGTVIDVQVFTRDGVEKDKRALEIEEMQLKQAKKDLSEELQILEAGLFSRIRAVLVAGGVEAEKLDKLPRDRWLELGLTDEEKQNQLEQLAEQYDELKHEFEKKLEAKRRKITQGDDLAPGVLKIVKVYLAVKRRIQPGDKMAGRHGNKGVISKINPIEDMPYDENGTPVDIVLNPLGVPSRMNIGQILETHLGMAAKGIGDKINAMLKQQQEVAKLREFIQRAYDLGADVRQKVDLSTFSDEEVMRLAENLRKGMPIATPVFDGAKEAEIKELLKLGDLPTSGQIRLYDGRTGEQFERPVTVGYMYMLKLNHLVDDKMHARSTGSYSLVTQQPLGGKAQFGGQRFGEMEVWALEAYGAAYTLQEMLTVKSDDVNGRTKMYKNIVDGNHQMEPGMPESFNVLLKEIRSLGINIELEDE
Sequence of E. coli RNA polymerase (P0A8T7 whole entry partner): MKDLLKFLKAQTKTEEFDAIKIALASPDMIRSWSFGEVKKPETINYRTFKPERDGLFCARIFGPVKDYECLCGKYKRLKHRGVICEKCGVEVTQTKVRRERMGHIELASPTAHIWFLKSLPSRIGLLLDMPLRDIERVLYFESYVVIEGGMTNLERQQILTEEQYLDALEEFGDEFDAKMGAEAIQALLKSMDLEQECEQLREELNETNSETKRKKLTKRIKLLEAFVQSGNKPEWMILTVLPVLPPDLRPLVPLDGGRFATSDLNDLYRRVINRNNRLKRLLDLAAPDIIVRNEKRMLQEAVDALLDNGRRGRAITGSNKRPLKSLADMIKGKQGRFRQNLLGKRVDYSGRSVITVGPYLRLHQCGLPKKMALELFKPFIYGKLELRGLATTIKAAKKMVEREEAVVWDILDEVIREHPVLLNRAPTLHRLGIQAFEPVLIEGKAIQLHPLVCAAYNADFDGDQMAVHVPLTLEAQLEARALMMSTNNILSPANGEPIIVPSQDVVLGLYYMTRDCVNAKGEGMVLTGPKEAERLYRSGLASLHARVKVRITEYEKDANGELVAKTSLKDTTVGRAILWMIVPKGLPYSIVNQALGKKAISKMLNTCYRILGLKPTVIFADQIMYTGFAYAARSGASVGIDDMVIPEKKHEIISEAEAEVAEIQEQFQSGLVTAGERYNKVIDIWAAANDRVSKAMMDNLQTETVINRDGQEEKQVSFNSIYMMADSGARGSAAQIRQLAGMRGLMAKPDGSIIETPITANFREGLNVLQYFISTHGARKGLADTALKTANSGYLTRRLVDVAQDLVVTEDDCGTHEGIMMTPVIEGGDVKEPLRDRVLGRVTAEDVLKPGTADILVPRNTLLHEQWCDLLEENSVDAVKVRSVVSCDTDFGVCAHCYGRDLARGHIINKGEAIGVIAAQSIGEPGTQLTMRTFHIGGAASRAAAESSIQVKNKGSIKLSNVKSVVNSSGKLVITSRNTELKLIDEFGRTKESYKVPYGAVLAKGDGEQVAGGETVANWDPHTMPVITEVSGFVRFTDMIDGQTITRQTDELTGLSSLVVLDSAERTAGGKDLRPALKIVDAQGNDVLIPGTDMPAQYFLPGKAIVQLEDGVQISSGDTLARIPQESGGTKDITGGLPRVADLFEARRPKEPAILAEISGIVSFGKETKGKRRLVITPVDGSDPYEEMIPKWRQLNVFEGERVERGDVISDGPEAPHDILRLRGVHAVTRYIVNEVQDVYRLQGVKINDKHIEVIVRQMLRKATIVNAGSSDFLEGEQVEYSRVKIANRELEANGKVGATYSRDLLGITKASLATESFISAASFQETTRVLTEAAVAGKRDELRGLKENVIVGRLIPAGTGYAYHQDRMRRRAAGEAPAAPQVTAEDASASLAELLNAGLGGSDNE
Sequence of E. coli RNA polymerase (P0A7Z4 whole entry partner): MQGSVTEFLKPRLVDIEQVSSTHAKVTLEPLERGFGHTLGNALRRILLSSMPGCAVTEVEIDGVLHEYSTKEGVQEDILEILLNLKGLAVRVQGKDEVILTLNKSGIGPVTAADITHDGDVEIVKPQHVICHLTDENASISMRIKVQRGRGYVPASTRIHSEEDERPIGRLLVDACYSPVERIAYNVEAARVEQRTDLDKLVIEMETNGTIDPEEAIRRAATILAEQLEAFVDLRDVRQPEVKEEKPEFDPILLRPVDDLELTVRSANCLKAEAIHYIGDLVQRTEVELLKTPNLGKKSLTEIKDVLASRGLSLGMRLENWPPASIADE
Sequence of E. coli RNA polymerase (P0A800 whole entry partner): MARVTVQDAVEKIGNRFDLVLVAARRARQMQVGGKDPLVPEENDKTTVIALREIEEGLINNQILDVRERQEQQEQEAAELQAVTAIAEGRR

In the case of `CCCCCCCCCC(=O)CC(=O)N[C@H]1CCOC1=O` [AHL, N-(3-Oxododecanoyl)-L-homoserine lactone], the “reduction in growth rate” value in test [1] (AHL 10^−7 M) was found to be 23%; in test [1] (AHL 10^−8 M), 13%; in test [1] (AHL 10^−9M), 7%.

Turning to `CO[C@H]1/C=C/O[C@@]2(C)Oc3c(C)c(O)c4c(O)c(c(/C=N/N5CCN(C)CC5)c(O)c4c3C2=O)NC(=O)/C(C)=C\C=C\[C@H](C)[C@H](O)[C@@H](C)[C@@H](O)[C@@H](C)[C@H](OC(C)=O)[C@@H]1C` [rifampicin], the growth rate in the test on wild-type E. coli Top10 (rifampicin 6 μM, maximum glucose concentration) came to 0.79 doublings per hour; in the test on wild-type E. coli Top10 (rifampicin 8 μM, maximum glucose concentration), 0.68 doublings per hour; in the test on wild-type E. coli Top10 (rifampicin 10 μM, maximum glucose concentration, M9 supplemented media) it was 0.55 doubling per hour. On E. coli RNA polymerase, the Ki is 1 nM.

As for `CN(C)[C@@H]1C(O)=C(C(N)=O)C(=O)[C@@]2(O)C(O)=C3C(=O)c4c(O)cccc4[C@@](C)(O)[C@H]3C[C@@H]12` [tetracycline], the values for the growth rate in the test with wild-type E. coli Top10 (tetracycline 4 μM), in the test with wild-type E. coli Top10 (tetracycline concentration of 1) and in the test with wild-type E. coli Top10 (tetracycline concentration of 2) were 0.19 doublings per hour, 0.66 doublings per hour and 0.38 doublings per hour, respectively.
